The values below come from patent US6624149B2, “Method for nucleic acid transfection of cells” (Genteric, Inc., priority 2000, dated 2003).

Molecules are shown by their SMILES.

In this experiment the test system is rat salivary gland (submandibular gland). Kind of experiment: Intraductal transfection of rat salivary gland with pCMV.FOX.Luc-2, luciferase assay. As to conditions: 48 hours. It is filed as in vivo. The method, then:
Nucleic acid/transition metal enhancer mixtures were prepared by sequentially adding deionized water or a buffered solution, DNA, and a desired transition metal enhancer to a polystyrene tube with mixing. “Free” (i.e., “Naked”) DNA controls were prepared by sequentially adding DNA to water or a buffered solution
Male Sprague-Dawley rats (260-280 g) were fasted the night prior to treatment. After administration of the anesthesia (see Section 6.1.3), both right and left salivary gland ducts (specifically, Wharton's duct) were cannulated with fine polyurethane tubing (i.d. 0.005″) and cemented into the desired location. Atropine was then administered subcutaneously (0.5 mg/kg) and, after eight minutes, 50 μl of the nucleic acid/transition metal enhancer mixture was injected, infused, instilled or administered at the ductal orifice or directly into the duct at any point along its length. See Goldfine, Nature Biotechnology 15:1378, 1997.
Regardless of whether a liposome/transition metal/nucleic acid mixture or a nucleic acid/transition metal enhancer mixture was delivered, the tubing and mixture was kept in place for ten additional minutes after application of the mixture prior to removal. At 48 hours post atropine administration, the rats were anesthetized by intraperitoneal injection of pentobarbital (50 mg/kg). The right and left submandibular glands were surgically removed, and the tissues were assayed for any observable reporter gene (luciferase of hGH) expression using the methods described below.
The presently claimed invention describes a new method using a combination of a transition metal enhancer and a nucleic acid of interest for gene delivery. The present invention provides a method which may enhance gene expression by improving the efficiency of gene delivery. This change in gene expression can be quantitated using various assays, such as the luciferase assay. de Wet et al., Molec. Cell Biol. 7:725, 1987. In various experiments described herein, the right and left submandibular glands were removed from the male Sprague-Dawley rats at 48 hours post administration of the pCMV.FOX.Luc-2 containing solution. In additional experiments other organs, such as the rat lungs, were used.
In experiments in which submandibular glands were tested, the amount of luciferase present in the right and left submandibular gland of each male Sprague-Dawley rat was measured independently and treated as separate, individual experiments (e.g., trials) because the amount of luciferase expressed by one submandibular gland is independent of the amount of luciferase expressed in the other submandibular gland. Therefore, each submandibular gland was independently lysed in lysis buffer (1.0 ml buffer per 0.1 g tissue) to create a lysis homogenate. The lysis buffer contained 100 mM K2PO4 pH 7.0, 1 mM dithiothreitol, and 1% Triton X-100. A 100 μl aliquot of lysis homogenate from each submandibular gland was analyzed for luciferase activity (de Wet et al., Molec. Cell Biol. 7:725, 1987) using a Monolight 2010 luminometer (Analytical Luminescence Laboratories). Accordingly, luciferase light emissions from each aliquot of the lysis homogenate were measured over a ten second period.
Activity was expressed as relative light units, values collectively representing the assay conditions, luciferase concentration, luminometer photomultiplier tube sensitivity and background. Using well known techniques, the luciferase light units may be converted, for example, to picograms of luciferase protein. See, e.g., Felgner et al., U.S. Pat. No. 5,580,899 at Example 13. All experiments were performed in duplicate. In experiments using submandibular glands, data from each individual submandibular gland lysis homogenate is reported as a single trial.

Take `[Cl-].[Cl-].[Zn+2]` [ZnCl2, zinc chloride]: the “Average relative light units” value worked out at 63842 relative light units (Table 2, metal chloride 0.9 mM, 32 μg DNA in 50 μl, eight glands); 5685 relative light units (Table 3, metal chloride 0.9 mM, 32 μg DNA in 50 μl, Tris-HCl/EDTA, eight glands); 243362 relative light units (Table 6, zinc 3.6 mM, 128 μg DNA in 50 μl); 252446 relative light units (Table 7, ZnCl2 3.6 mM, pH 5.5, 128 μg DNA in 50 μl); 196002 relative light units (Table 7, ZnCl2 3.6 mM, pH 6.5, 128 μg DNA in 50 μl); 260340 relative light units (Table 7, ZnCl2 3.6 mM, pH 7.5, 128 μg DNA in 50 μl). The “Average relative light units” value (Table 7, ZnCl2 3.6 mM, pH 8.5, 128 μg DNA in 50 μl) is on record as 277958 relative light units.
